Source: PubChem BioAssay AID623883 (Johns Hopkins Ion Channel Center, 2012)
Calls of active or inactive are those of the source.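 Rule for the calls: active = peak hERG inhibition over 30% at some tested dose, together with a fitted dose response curve; inactive = no hERG inhibition at any dose, or no curve fitted.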

Biological target: Voltage-gated inwardly rectifying potassium channel KCNH2 (Homo sapiens) (UniProt Q12809)
Experiment: block of human KCNH2 potassium channel – cell-based, FluxOR thallium flux, concentration-response, set 4, selectivity assay for KCNK9 inhibitor project, SAR follow-up (AID 623883)
Conditions: hERG-expressing cells, FluxOR thallium flux fluorescence

Chain of Voltage-gated inwardly rectifying potassium channel KCNH2 (Homo sapiens) (Q12809 whole entry, looked up): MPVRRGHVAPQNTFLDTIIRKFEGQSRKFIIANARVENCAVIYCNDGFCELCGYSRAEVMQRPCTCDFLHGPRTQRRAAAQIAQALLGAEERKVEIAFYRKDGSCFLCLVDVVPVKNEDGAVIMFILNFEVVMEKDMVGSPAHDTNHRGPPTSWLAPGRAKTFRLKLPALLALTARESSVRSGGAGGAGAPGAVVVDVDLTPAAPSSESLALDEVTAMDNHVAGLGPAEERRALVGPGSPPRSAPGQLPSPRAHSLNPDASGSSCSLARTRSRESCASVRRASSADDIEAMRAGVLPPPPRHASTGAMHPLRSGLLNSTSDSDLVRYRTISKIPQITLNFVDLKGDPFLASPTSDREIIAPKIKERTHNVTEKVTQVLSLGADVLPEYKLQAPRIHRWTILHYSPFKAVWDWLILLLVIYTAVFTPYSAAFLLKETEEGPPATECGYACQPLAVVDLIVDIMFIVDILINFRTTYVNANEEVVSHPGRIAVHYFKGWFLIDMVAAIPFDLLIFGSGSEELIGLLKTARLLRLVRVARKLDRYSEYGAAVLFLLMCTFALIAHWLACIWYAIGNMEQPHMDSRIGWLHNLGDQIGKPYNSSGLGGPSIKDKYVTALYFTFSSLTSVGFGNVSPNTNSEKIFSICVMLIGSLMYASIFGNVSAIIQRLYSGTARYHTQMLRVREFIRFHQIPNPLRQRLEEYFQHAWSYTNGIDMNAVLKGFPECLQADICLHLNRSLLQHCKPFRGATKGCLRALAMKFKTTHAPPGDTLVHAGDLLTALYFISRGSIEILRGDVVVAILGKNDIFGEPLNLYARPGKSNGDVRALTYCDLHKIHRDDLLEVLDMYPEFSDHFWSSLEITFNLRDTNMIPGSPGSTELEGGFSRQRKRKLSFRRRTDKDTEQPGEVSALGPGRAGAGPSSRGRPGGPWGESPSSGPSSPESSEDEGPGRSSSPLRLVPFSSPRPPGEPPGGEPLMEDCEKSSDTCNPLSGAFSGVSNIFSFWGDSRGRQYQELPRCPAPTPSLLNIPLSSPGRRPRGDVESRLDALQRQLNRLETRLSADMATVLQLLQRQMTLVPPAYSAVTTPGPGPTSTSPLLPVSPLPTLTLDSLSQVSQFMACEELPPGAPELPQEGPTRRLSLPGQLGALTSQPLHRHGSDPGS

SMILES | IC50 [µM]
CC(C1CC2CCC1C2)n1c(SCCc2cccc(O)c2)nnc1-c1ccco1 (stereo not given) | 8.05
COc1ccc(CSc2nnc(-c3ccco3)n2C(C)C2CC3CCC2C3)cc1OC (stereo not given) | 18.2
COc1ccc(NC(=O)CSc2nnc(-c3ccco3)n2C(C)C2CC3CCC2C3)cc1OC (stereo not given) | 25.8
COc1cccc(-c2nnc(SSc3nnc(-c4cccc(OC)c4)n3C(C)C3CC4CCC3C4)n2C(C)C2CC3CCC2C3)c1 (stereo not given) | 0.398
COc1cccc(CCSc2nnc(-c3ccco3)n2C(C)C2CC3CCC2C3)c1 (stereo not given) | 4.52
CC(C1CC2CCC1C2)n1c(SCCc2ccccn2)nnc1-c1ccco1 (stereo not given) | 12.6
COc1ccc(C(=O)CCSc2nnc(-c3ccco3)n2C(C)C2CC3CCC2C3)cc1OC (stereo not given) | 15.8
C[C@H]([C@@H]1CC2CC[C@H]1C2)n1c(-c2ccsc2)n[nH]c1=S | 0.839
CCCC(=O)C1CCN(c2ncnc3c2CN(C(=O)c2ccc(-c4ccccc4)cc2)CC3)CC1 | 7.68

Same assay, conditions: hERG-expressing cells, at 30 µM (top of the series)

SMILES | fluorescence ratio, lower = inhibition
CC(C1CC2CCC1C2)n1c(SCCN2CCOCC2)nnc1-c1ccco1 (stereo not given) | inactive
COc1cccc(-c2n[nH]c(=S)n2[C@H](C)[C@@H]2CC3CC[C@H]2C3)c1 | inactive
C[C@H]([C@@H]1CC2CC[C@H]1C2)n1c(-c2ccccc2F)n[nH]c1=S | inactive
CC(C1CC2CCC1C2)n1c(SCC(=O)N2CCN(C)CC2)nnc1-c1ccco1 (stereo not given) | inactive
CC(C1C[C@H]2CCC1C2)n1c(-c2ccsc2)n[nH]c1=S (stereo not given in full) | inactive
CC(C1CC2CCC1C2)n1c(N)nnc1-c1ccco1 (stereo not given) | inactive
CC(C1CCN(C)CC1)n1c(-c2ccco2)n[nH]c1=S (stereo not given) | inactive
COc1cccc(-c2n[nH]c(=S)n2[C@H](C)C2CCCCC2)c1 | inactive
CC([C@@H]1CC2CC[C@H]1C2)n1c(-c2ccsc2)n[nH]c1=S (stereo not given in full) | inactive
CC(C1CC2CCC1C2)n1c(-c2ccco2)nn(CCc2ccncc2)c1=S (stereo not given) | inactive
C[C@@H]([C@@H]1CC2CC[C@H]1C2)n1c(-c2ccco2)n[nH]c1=S | inactive
C[C@H]([C@@H]1CC2CC[C@H]1C2)n1c(-c2ccco2)n[nH]c1=S | inactive
C[C@H](C1CCCCC1)n1c(-c2ccsc2)n[nH]c1=S | inactive
C[C@@H]([C@@H]1CC2CC[C@H]1C2)n1c(-c2ccsc2)n[nH]c1=S | inactive
C[C@H]([C@@H]1CC2CC[C@H]1C2)n1c(-c2ccsc2)n[nH]c1=S | inactive
C[C@H](C1CCCCC1)n1c(-c2ccccc2F)n[nH]c1=S | inactive
